18 compounds from PubChem BioAssay (NCI) can be followed below.

The structures appear in SMILES notation. Values joined by “and” are separate entries in the source; they are usually repeats but may differ in a detail not shown here. Equal values may be shown once.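 48-hour exposure; five concentrations; linearly interpolated endpoints. Here, GI50 denotes the concentration required for 50% inhibition of growth. TGI denotes the concentration required for complete inhibition of growth.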

Among the test systems are NCI-H460 lung; OVCAR-4 ovarian; SF-539 CNS; M14 melanoma; RPMI-8226 leukemia; A549 NSCLC; CCRF-CEM leukemia; SK-MEL-5 melanoma; MDA-MB-435; TK-10 renal; OVCAR-5 ovarian; K-562 leukemia; RXF 393 renal.
Common to all, as to test: NCI-60 cell line screen, 48 h

In the case of `COc1ccc(CN(Cc2ccc(OC)cc2)C(=O)CC2(O)C=CCC2)cc1` (stereo not given), the TGI in the experiment with NCI-H460 lung, in the experiment with OVCAR-4 ovarian, in the experiment on SF-539 CNS, in the experiment with M14 melanoma, with RPMI-8226 leukemia and with A549 NSCLC was over 100 µM each time. Besides, the TGI in the experiment with CCRF-CEM leukemia, in the experiment on SK-MEL-5 melanoma, in the experiment on MDA-MB-435, in the experiment with TK-10 renal, in the experiment on OVCAR-5 ovarian and in the experiment on K-562 leukemia was over 100 µM throughout.
With `CSc1nncc2[nH]c(C)nc12`, the TGI in the experiment with OVCAR-4 ovarian, in the experiment with SF-539 CNS, in the experiment with M14 melanoma, in the experiment with RPMI-8226 leukemia, in the experiment on A549 NSCLC and with CCRF-CEM leukemia was over 100 µM each time. Moreover, the TGI with SK-MEL-5 melanoma, in the experiment on MDA-MB-435, in the experiment with TK-10 renal, in the experiment with OVCAR-5 ovarian and in the experiment on K-562 leukemia was over 100 µM in each case.
With `CC(=O)OC1O[C@@H](C(C)(C)O)CC[C@@H]1[C@H]1CC[C@@]2(C)C3=C(CC[C@]12C)[C@@]1(C)C[C@@H](OC(=O)CC(C)(O)CC(=O)O)[C@H](OC(C)=O)C(C)(C)C1CC3` (stereo not given in full), the TGI with NCI-H460 lung worked out at 32.7 µM; in the experiment on OVCAR-4 ovarian, 37.6 µM; with M14 melanoma, 34.8 µM; in the experiment with RPMI-8226 leukemia, 53.8 µM; in the experiment on A549 NSCLC it was 30.9 µM; with CCRF-CEM leukemia, 41.6 µM. Besides, the TGI came to 33.3 µM in the experiment on SK-MEL-5 melanoma; 31.4 µM in the experiment on MDA-MB-435; 33.2 µM in the experiment with TK-10 renal; 32.2 µM in the experiment on OVCAR-5 ovarian; 89.1 µM with K-562 leukemia.
Consider `O=C(O)c1cccnc1`, for which the TGI with NCI-H460 lung, with OVCAR-4 ovarian, with SF-539 CNS, in the experiment on M14 melanoma, in the experiment on RPMI-8226 leukemia and in the experiment with A549 NSCLC was over 100 µM each time. Also, the TGI with CCRF-CEM leukemia, in the experiment with SK-MEL-5 melanoma, in the experiment with MDA-MB-435, with TK-10 renal, in the experiment on OVCAR-5 ovarian and in the experiment with K-562 leukemia was over 100 µM throughout.
For `CC(C)=CCc1c(O)ccc2ccc(=O)oc12`, the TGI in the experiment on NCI-H460 lung was over 100 µM; in the experiment on OVCAR-4 ovarian it was over 100 µM; in the experiment on SF-539 CNS it was over 31.6 µM; in the experiment with RPMI-8226 leukemia, over 100 µM; in the experiment with A549 NSCLC, over 100 µM; in the experiment with CCRF-CEM leukemia, over 100 µM. In addition, the TGI in the experiment with SK-MEL-5 melanoma was 23.5 µM; in the experiment with OVCAR-5 ovarian it was over 31.6 µM; in the experiment on K-562 leukemia, over 100 µM; in the experiment with RXF 393 renal, over 100 µM.
In the case of `O=C(/C=C/C=C/c1ccccc1)c1ccc2c(c1)CCCC2`, the TGI in the experiment on OVCAR-4 ovarian, in the experiment on SF-539 CNS, with M14 melanoma, with RPMI-8226 leukemia, with A549 NSCLC and with CCRF-CEM leukemia was over 100 µM each time. The TGI is over 100 µM in the experiment on SK-MEL-5 melanoma; 40.8 µM in the experiment on MDA-MB-435; over 100 µM with TK-10 renal; over 100 µM in the experiment on OVCAR-5 ovarian; over 100 µM in the experiment on K-562 leukemia.
Consider `COc1ccc(/C=N/n2c(-c3ccccc3)n[nH]c2=O)cc1`, for which the TGI in the experiment on NCI-H460 lung, in the experiment on OVCAR-4 ovarian, in the experiment on SF-539 CNS, in the experiment with M14 melanoma, in the experiment on RPMI-8226 leukemia and with A549 NSCLC was over 100 µM in each case. Also, the TGI with CCRF-CEM leukemia, in the experiment with MDA-MB-435, in the experiment with OVCAR-5 ovarian and with K-562 leukemia was over 100 µM throughout.
For `COc1cccc2c1C(=O)c1c(O)c3c(c(O)c1C2=O)C[C@@](O)(C(=O)CO)C[C@@H]3OC1CC(N)C(OC)C(C)O1` (stereo not given in full), the TGI in the experiment on NCI-H460 lung stood at 0.217 µM; in the experiment with OVCAR-4 ovarian, 9.67 µM; with SF-539 CNS, 0.449 µM; in the experiment with M14 melanoma, 0.996 µM; with RPMI-8226 leukemia, 0.374 µM; in the experiment with A549 NSCLC, 18.7 µM. Also, the TGI turned out to be 0.176 µM with CCRF-CEM leukemia; 0.189 µM with SK-MEL-5 melanoma; 36.6 µM with TK-10 renal; 1.34 µM in the experiment on OVCAR-5 ovarian; 0.0483 µM with K-562 leukemia; 0.825 µM with RXF 393 renal.
With `O=P(O)(Cc1ccccc1)c1ccccc1-c1ccccc1`, the TGI in the experiment on NCI-H460 lung, in the experiment with OVCAR-4 ovarian, with SF-539 CNS, with M14 melanoma, in the experiment with A549 NSCLC and in the experiment on CCRF-CEM leukemia was over 100 µM in each case. In addition, the TGI in the experiment with SK-MEL-5 melanoma, in the experiment on TK-10 renal, in the experiment with OVCAR-5 ovarian, in the experiment with K-562 leukemia and with RXF 393 renal was over 100 µM in each case.
On to `COc1cc(/C=C/C(=O)O)ccc1C(=O)OCc1ccccc1`, for which the TGI in the experiment on NCI-H460 lung, in the experiment on OVCAR-4 ovarian, in the experiment on SF-539 CNS, in the experiment on RPMI-8226 leukemia, in the experiment on A549 NSCLC and in the experiment with CCRF-CEM leukemia was over 100 µM each time. Further, the TGI in the experiment on SK-MEL-5 melanoma, with OVCAR-5 ovarian, in the experiment on K-562 leukemia and in the experiment on RXF 393 renal was over 100 µM throughout.
For the compound `COC(=O)C1C=CN(N(C)C)C2=C1C(=O)c1c(O)cccc1C2=O` (stereo not given), the TGI in the experiment on NCI-H460 lung was 3.03 µM; in the experiment with OVCAR-4 ovarian it was 5.57 µM; with RPMI-8226 leukemia, 5.97 µM; in the experiment on A549 NSCLC, 6.44 µM; in the experiment on CCRF-CEM leukemia, 5.04 µM; with SK-MEL-5 melanoma, 1.77 µM. Besides, the TGI with TK-10 renal came out at 15 µM; in the experiment with OVCAR-5 ovarian, 4.62 µM; in the experiment on K-562 leukemia, 52.1 µM; in the experiment with RXF 393 renal, 14.1 µM.
With `COc1ccc(CCN=C2OCc3ccccc32)cc1OC`, the TGI was over 100 µM in the experiment on NCI-H460 lung; over 100 µM in the experiment on OVCAR-4 ovarian; 63.2 µM with SF-539 CNS; over 100 µM with A549 NSCLC; over 100 µM in the experiment with CCRF-CEM leukemia; over 100 µM with SK-MEL-5 melanoma. The TGI in the experiment with MDA-MB-435, in the experiment on TK-10 renal and in the experiment with K-562 leukemia was over 100 µM each time.
On to `CC12CCC3C(CCC4=CC(O)CCC43C=O)C1(O)CCC2c1ccc(=O)oc1` (stereo not given), for which the TGI in the experiment on NCI-H460 lung is 0.0131 µM; in the experiment with OVCAR-4 ovarian it was 0.0253 µM; in the experiment with SF-539 CNS it was 0.0115 µM and 0.0515 µM; in the experiment on RPMI-8226 leukemia, 0.237 µM and 0.273 µM; with A549 NSCLC, 0.02 µM; with CCRF-CEM leukemia, 0.129 µM and 0.523 µM. Also, the TGI in the experiment on SK-MEL-5 melanoma is 0.0201 µM; in the experiment with K-562 leukemia, 0.247 µM and 0.143 µM; in the experiment with RXF 393 renal, 0.00801 µM. For the same compound, the GI50 is 0.05 µM in the experiment with SF-539 CNS; 0.0238 µM in the experiment on RPMI-8226 leukemia; 0.00452 µM with A549 NSCLC; 0.0115 µM and 0.05 µM with CCRF-CEM leukemia; 0.00511 µM in the experiment on OVCAR-5 ovarian; 0.0274 µM in the experiment with K-562 leukemia. Further, the GI50 with RXF 393 renal was 0.00127 µM.
Consider `CN(CCN(C)C(=S)NN)C(=S)NN`, for which the TGI in the experiment with NCI-H460 lung, in the experiment on OVCAR-4 ovarian, in the experiment with M14 melanoma, in the experiment on RPMI-8226 leukemia, with A549 NSCLC and with CCRF-CEM leukemia was over 100 µM throughout. The TGI in the experiment on SK-MEL-5 melanoma, in the experiment on MDA-MB-435 and in the experiment with OVCAR-5 ovarian was over 100 µM each time.
Regarding `CCCC(O)C(NC(=O)CCl)C(=O)O` (stereo not given), the TGI in the experiment on NCI-H460 lung, in the experiment with OVCAR-4 ovarian, in the experiment with SF-539 CNS, with RPMI-8226 leukemia, with A549 NSCLC and in the experiment with CCRF-CEM leukemia was over 100 µM in each case. In addition, the TGI in the experiment with SK-MEL-5 melanoma, in the experiment on OVCAR-5 ovarian, in the experiment with K-562 leukemia and in the experiment on RXF 393 renal was over 100 µM each time.
Take `CCOC(=O)c1ccc(NC(=O)O/N=C(/Cl)CCl)cc1`: the TGI with NCI-H460 lung, in the experiment on OVCAR-4 ovarian, with SF-539 CNS, with RPMI-8226 leukemia, in the experiment with A549 NSCLC and in the experiment with CCRF-CEM leukemia was over 100 µM each time. Moreover, the TGI in the experiment with SK-MEL-5 melanoma, with TK-10 renal, in the experiment on OVCAR-5 ovarian and in the experiment with K-562 leukemia was over 100 µM in each case.
As to `CC[C@]1(Cc2ccc(OC)c(OC)c2)[C@@H]2C[C@@H](C3OCCO3)ON2O[C@H](OC2CCCC2(c2ccccc2)c2ccccc2)[C@@H]1OC(C)=O` (stereo not given in full), the TGI is 34.7 µM with NCI-H460 lung; over 100 µM in the experiment with SF-539 CNS; 39.6 µM with M14 melanoma; 79.5 µM with A549 NSCLC; 60.8 µM with CCRF-CEM leukemia; 37.7 µM in the experiment on SK-MEL-5 melanoma. Further, the TGI in the experiment on MDA-MB-435 is 46.9 µM; with TK-10 renal it was over 100 µM; with OVCAR-5 ovarian, 36 µM; in the experiment on K-562 leukemia it was 39.1 µM.
For the compound `O=C(NC(CO)Cc1ccc(Oc2cc(CC(CO)NC(=O)OCc3ccccc3)ccc2OC(=O)OCc2ccccc2)cc1)OCc1ccccc1` (stereo not given), the TGI in the experiment with NCI-H460 lung was 38.9 µM; in the experiment on OVCAR-4 ovarian, 65.3 µM; in the experiment on SF-539 CNS it was 38.5 µM; with M14 melanoma, 55.1 µM; with RPMI-8226 leukemia, 31 µM; in the experiment with A549 NSCLC, over 100 µM. Also, the TGI in the experiment on CCRF-CEM leukemia was over 100 µM; in the experiment with MDA-MB-435 it was 45 µM; in the experiment on TK-10 renal it was 54.1 µM; in the experiment with OVCAR-5 ovarian, over 100 µM; in the experiment with K-562 leukemia, 46.7 µM.
